# From patent publication US11717477B2, “Vaginal systemic drug delivery” (LiGalli B.V., priority 2018, dated 2023)
# Values joined by “and” are separate entries in the source; they are usually repeats but may differ in a detail not shown here. Equal values may be shown once. Where a name gives a salt, the structure may show the parent alone. Read-outs that look alike come from different tables or passages of the source.
# Key:
# in vivo = settings: female, Beagle, dog
# [1] = cited from earlier work
# [2] = cited from earlier work; remark: listed apart in the source
# [3] = physiological release of oxytocin; cited from earlier work
# [4] = 5 min after first vaginal dose, individual dogs
# [5] = 10 min after first vaginal dose, individual dogs
# [6] = 20 min after first vaginal dose, individual dogs
# [7] = 30 min after first vaginal dose, individual dogs
# [8] = 60 min after first vaginal dose, individual dogs
# [9] = 135 min after first dose (second vaginal dose at 125 min), individual dogs
# [10] = 155 min after first dose (second vaginal dose at 125 min), individual dogs
# [11] = 185 min after first dose (second vaginal dose at 125 min), individual dogs
# [12] = Dog, Lorazepam 0.8 mg (1st), vaginal, present study
# [13] = vaginal administration, Beagle dogs, two animals per compound
# [14] = 0.8 mg, Lorazepam 0.8 mg (1st), vaginal, present study
# [15] = 0.8 mg, Lorazepam 0.8 mg (2nd), vaginal, present study
# [16] = Human, Lorazepam 2.0 mg, intramuscular, Wermeling
# [17] = Human, Lorazepam 2.0 mg, intravenous, Wermeling
# [18] = Human, Lorazepam 2.0 mg, nasal, Wermeling
# [19] = Human, Lorazepam 2.0 mg, oral, Blin
# [20] = Human, Nicotine 2.0 mg, intrapulmonary, Russell
# [21] = Human, Nicotine 4.0 mg, oral (gum), Russell
# [22] = Dog, 2.5 mg/24 h, vaginal (ring), WO2011163358
# [23] = Dog, 6.0 mg/24 h, vaginal (ring), WO2011163358
# [24] = Dog, 10 mg/24 h, oral, WO2011163358
# [25] = Human, dose 5.0, dermal (patch), Kennelly
# [26] = Human, dose 5.0, oral (ext. rel.), Kennelly
# [27] = Human, dose 5.0, oral, Kennelly
# [28] = Human, dose 100, dermal (gel), Kennelly
smiles,measurement,setting,value
"CC(C)C[C@H](NC(=O)CNC(=O)[C@H](Cc1ccc(O)cc1)NC(=O)[C@H](CO)NC(=O)[C@H](Cc1c[nH]c2ccccc12)NC(=O)[C@H](Cc1cnc[nH]1)NC(=O)[C@@H]1CCC(=O)N1)C(=O)N[C@@H](CCCNC(=N)N)C(=O)N1CCC[C@H]1C(=O)NCC(N)=O [GnRH, Gonadotropin-releasing hormone]",Plasma concentration,"dog, in vivo",<LLOQ
same,Time until plasma levels fall below LLOQ / return to baseline,"dog, in vivo",≤ 60 min
same,Tmax,"female, Beagle, dog, in vivo, 0.5 mg",5 min
same,Tmax,in vivo; 0.5 mg,10 min
same,level at 20 min,"in vivo; 50 uL, Plasma concentration",0.41 ng/mL
same,level at 0.5 h,"in vivo; 50 uL, Plasma concentration",0.2 ng/mL
same,level at 2.25 h,"in vivo; 50 uL, Plasma concentration",0.71 ng/mL
same,level at 245 min,"in vivo; 50 uL, Plasma concentration",0.19 ng/mL
same,Tmax,in vivo,≤ 5 min
same,Cmax,"[1]; human, in vivo, inhaled or intranasal, 0.8 mg",0.35 ng/mL
same,Cmax,"[1]; human, in vivo",0.002 ng/mL
O=C1Nc2ccc(Cl)cc2C(c2ccccc2Cl)=NC1O (stereo not drawn) [Lorazepam],Plasma concentration,[4],1.55 ng/mL and 3.93 ng/mL
same,Plasma concentration,[5],2.65 ng/mL and 3.47 ng/mL
same,Plasma concentration,[6],2.23 ng/mL and 4.25 ng/mL
same,Plasma concentration,[7],1.49 ng/mL and 3.28 ng/mL
same,Plasma concentration,[8],0.38 ng/mL and 0.99 ng/mL
same,Plasma concentration,[9],7.65 ng/mL and 7.13 ng/mL
same,Plasma concentration,[10],4.96 ng/mL and 6.16 ng/mL
same,Plasma concentration,[11],1.89 ng/mL and 3.32 ng/mL
same,Cmax,[12],2.8 ng/mL
same,Tmax,[12],10 min
same,Cmax,"Dog, Lorazepam 0.8 mg (2nd), vaginal, present study",7.0 ng/mL
same,Plasma concentration,"Pre-dose, individual dogs",<LLOQ
same,Time until plasma levels fall below LLOQ / return to baseline,"after vaginal administration, Beagle dogs",≤ 120 min
same,Tmax,[13],20 min
same,Cmax,in vivo; [14],4 ng/mL
same,Cmax,in vivo; [15],7.8 ng/mL
same,Tmax,in vivo; [14],5 min
same,Tmax,in vivo; [15],10 min
same,Tmax,in vivo; [13],10 min
same,Cmax,[1]; [16],22.6 ng/mL
same,Tmax,[1]; [16],180 min
same,Cmax,[1]; [17],47.6 ng/mL
same,Tmax,[1]; [17],6 min
same,Cmax,[1]; [18],33.4 ng/mL
same,Tmax,[1]; [18],55 min
same,Cmax,[1]; [19],33.4 ng/mL
same,Tmax,[1]; [19],55 min
CN1CCCC1c1cccnc1 (stereo not drawn) [Nicotine],Cmax / plasma concentration of one animal relative to the other animal,"dog, in vivo",more than 4 times
same,Time until plasma levels fall below LLOQ / return to baseline,"female, Beagle, dog, in vivo",≤ 120 min
same,Tmax,"female, Beagle, dog, in vivo",10 min
same,Tmax,"female, Beagle, dog, in vivo, 2.5 mg",5 min
same,Tmax,in vivo; 2.5 mg,10 min
same,Tmax,in vivo,≤ 5 min
same,Tmax,"[2]; dog, in vivo, po, 64 mg",120 min
same,Tmax,"[2]; dog, in vivo, po, 148 mg",60 min
same,Cmax,[1]; [20],49 ng/mL
same,Tmax,[1]; [20],2 min
same,Cmax,[1]; [21],40 ng/mL
same,Tmax,[1]; [21],30 min
O=[N+]([O-])OCC(CO[N+](=O)[O-])O[N+](=O)[O-] [Nitroglycerin],Plasma concentration,[4],<LLOQ
same,Plasma concentration,[5],<LLOQ
same,Plasma concentration,[6],<LLOQ
same,Plasma concentration,[7],<LLOQ
same,Plasma concentration,[8],<LLOQ
same,Plasma concentration,"120 min after first vaginal dose, individual dogs",<LLOQ
same,Plasma concentration,[9],<LLOQ
same,Plasma concentration,[10],<LLOQ
same,Plasma concentration,[11],<LLOQ
same,Plasma concentration,"245 min after first dose (second vaginal dose at 125 min), individual dogs",<LLOQ
same,Plasma concentration,"Pre-dose, individual dogs",<LLOQ
same,Parent compound concentration detectable in plasma,"after vaginal administration of Nitroglycerin, Beagle dogs, listed as nitroglycerin",no detectable concentrations
CCN(CC)CC#CCOC(=O)C(O)(c1ccccc1)C1CCCCC1 (stereo not drawn) [Oxybutynin HCl],Cmax / plasma concentration of one animal relative to the other animal,"dog, in vivo",more than 3 times
same,Elimination from the body,"dog, in vivo",almost completely eliminated
same,Plasma concentration,"dog, in vivo",<LLOQ
same,Tmax,in vivo,10 min
same,Cmax,[2]; [22],14.0 ng/mL
same,Tmax,[2]; [22],90 min
same,Cmax,[2]; [23],18.8 ng/mL
same,Tmax,[2]; [23],90 min
same,Cmax,[2]; [24],17.9 ng/mL
same,Tmax,[2]; [24],180 min
same,Cmax,[1]; [25],4.2 ng/mL
same,Tmax,[1]; [25],1500 min
same,Cmax,[1]; [26],2.1 ng/mL
same,Tmax,[1]; [26],60 min
same,Cmax,[1]; [27],10.0 ng/mL
same,Tmax,[1]; [27],50 min
same,Cmax,[1]; [28],3.2 ng/mL
same,Tmax,[1]; [28],1500 min
CC[C@H](C)[C@@H]1NC(=O)[C@H](Cc2ccc(O)cc2)NC(=O)[C@@H](N)CSSC[C@@H](C(=O)N2CCC[C@H]2C(=O)N[C@@H](CC(C)C)C(=O)NCC(N)=O)NC(=O)[C@H](CC(N)=O)NC(=O)[C@H](CCC(N)=O)NC1=O [oxytocin],half life time,[3],less than 6 minutes
